Here are results for 24 molecules from US20080234262A1 (Wyeth, priority 2007, published 2008).

Read-outs that look alike come from different tables or passages of the source.

For one test, the system named is breast line MDA468. The experiment in a line: In vitro cell culture growth assay (MTS), MDA468. It is filed as cell-based, human. The following applies: MDA468 cells, three days after drug treatment. A digest of the protocol:
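Growth measured as percent of same-plate vehicle control by MTS metabolic dye conversion (A490). Breast MDA468 and prostate LNCap cells, plated a day ahead, were exposed to compounds for 3 days.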

Another test relates to prostate line LNCap. As to the kind of experiment: In vitro cell culture growth assay (MTS), LNCap.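 Further: viable cell density read by absorbance at 490 nm, growth expressed as percent of vehicle-treated cells on the same plate.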 It is filed as cell-based, human. The note with it: LNCap cells, three days after drug treatment.
The target of a further test is PI3K (Homo sapiens, UniProt P42336). As to the kind of experiment: Fluorescence polarization assay for PI3K.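 Further: PI3K kinase reaction on PIP2 with ATP, 30-60 min, product sensed by GST-GRP with red probe in fluorescence polarization (mP), controls without enzyme and at zero time.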 It is filed as biochemical. (In fluorescence polarisation assays a small probe gives low polarisation when free and higher when bound to something large.)
Chain of PI3K (P42336 whole entry): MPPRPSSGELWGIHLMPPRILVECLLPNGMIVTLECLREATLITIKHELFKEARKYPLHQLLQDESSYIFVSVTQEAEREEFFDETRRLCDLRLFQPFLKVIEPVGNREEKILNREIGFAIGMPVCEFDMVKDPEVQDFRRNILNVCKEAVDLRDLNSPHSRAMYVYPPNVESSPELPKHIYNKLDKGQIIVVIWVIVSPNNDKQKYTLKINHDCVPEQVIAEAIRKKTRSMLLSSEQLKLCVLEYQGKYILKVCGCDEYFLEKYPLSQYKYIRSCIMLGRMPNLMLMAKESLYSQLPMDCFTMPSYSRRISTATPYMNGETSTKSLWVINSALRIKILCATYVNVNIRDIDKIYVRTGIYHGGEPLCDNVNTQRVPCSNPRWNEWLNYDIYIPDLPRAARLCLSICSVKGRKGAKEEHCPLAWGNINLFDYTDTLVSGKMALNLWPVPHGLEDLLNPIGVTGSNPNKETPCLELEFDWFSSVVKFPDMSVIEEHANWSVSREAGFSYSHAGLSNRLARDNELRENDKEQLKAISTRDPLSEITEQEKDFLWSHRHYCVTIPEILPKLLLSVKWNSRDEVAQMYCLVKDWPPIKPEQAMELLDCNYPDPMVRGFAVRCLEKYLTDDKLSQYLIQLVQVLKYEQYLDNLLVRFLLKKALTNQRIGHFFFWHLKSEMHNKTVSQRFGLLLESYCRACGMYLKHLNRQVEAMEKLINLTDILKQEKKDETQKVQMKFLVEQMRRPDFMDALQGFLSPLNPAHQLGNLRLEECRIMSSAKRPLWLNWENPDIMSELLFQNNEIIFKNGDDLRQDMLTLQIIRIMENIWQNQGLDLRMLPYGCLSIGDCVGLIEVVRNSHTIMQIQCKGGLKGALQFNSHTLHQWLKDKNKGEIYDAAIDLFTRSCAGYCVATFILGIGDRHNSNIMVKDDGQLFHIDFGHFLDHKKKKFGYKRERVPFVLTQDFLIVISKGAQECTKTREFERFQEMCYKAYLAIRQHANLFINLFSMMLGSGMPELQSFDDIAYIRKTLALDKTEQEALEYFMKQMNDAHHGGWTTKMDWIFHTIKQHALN
Chain of PI3K (P27986 whole entry partner): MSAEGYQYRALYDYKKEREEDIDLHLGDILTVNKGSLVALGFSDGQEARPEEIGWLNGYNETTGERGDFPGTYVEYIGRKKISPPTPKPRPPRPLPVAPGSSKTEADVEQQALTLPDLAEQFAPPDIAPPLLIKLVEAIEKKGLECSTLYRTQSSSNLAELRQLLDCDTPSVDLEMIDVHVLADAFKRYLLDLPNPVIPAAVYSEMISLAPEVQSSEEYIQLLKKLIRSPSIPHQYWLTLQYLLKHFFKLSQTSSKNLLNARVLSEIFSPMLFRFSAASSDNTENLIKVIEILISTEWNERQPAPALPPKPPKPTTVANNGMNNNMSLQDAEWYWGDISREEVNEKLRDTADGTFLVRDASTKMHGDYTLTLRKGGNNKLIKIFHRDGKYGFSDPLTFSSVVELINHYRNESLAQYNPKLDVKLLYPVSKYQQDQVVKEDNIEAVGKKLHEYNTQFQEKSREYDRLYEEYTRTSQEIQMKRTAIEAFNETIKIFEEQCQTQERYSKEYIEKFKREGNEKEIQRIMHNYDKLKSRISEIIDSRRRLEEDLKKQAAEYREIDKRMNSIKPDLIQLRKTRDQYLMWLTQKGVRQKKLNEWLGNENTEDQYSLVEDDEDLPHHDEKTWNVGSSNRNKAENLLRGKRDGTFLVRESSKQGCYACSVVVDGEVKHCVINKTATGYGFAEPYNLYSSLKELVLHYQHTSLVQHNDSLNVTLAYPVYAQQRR

On to `O=C(NCCO)Nc1ccc(-c2nc(N3CCOCC3)c3cnn(C4CCN(CCCCO)CC4)c3n2)cc1` [Compound 746, 1-(4-{1-[1-(4-hydroxybutyl)piperidin-4-yl]-4-morpholin-4-yl-1H-pyrazolo[3,4-d]pyrimidin-6-yl}phenyl)-3-(2-hydroxyethyl)urea], for which the IC50 (as a rule, the midpoint of a concentration-inhibition curve) in the test on breast line MDA468 (Homo sapiens, 72 h) stood at 30000 nM; in the test with prostate line LNCap (Homo sapiens, LNCaP, 72 h), 29000 nM; at PI3K (PI3Kα, read-out: PI3Kα IC50), 370 nM.
Consider `CN(C)CC=CC(=O)N1CCC(n2ncc3c(N4CCOCC4)nc(-c4ccc5[nH]ccc5c4)nc32)CC1` [Compound 487, 4-{4-[6-(1H-indol-5-yl)-4-morpholin-4-yl-1H-pyrazolo[3,4-d]pyrimidin-1-yl]piperidin-1-yl}-N,N-dimethyl-4-oxobut-2-en-1-amine], for which the IC50 with breast line MDA468 (Homo sapiens, 72 h) is 2000 nM; in the test with prostate line LNCap (Homo sapiens, LNCaP, 72 h), 1000 nM; at PI3K (PI3Kα, read-out: PI3Kα IC50), 480 nM.
With `COC(=O)Nc1ccc(-c2nc(N3CCOCC3)c3cn[nH]c3n2)cc1` [Compound 279, methyl [4-(4-morpholin-4-yl-1H-pyrazolo[3,4-d]pyrimidin-6-yl)phenyl]carbamate], the IC50 with breast line MDA468 (Homo sapiens, 72 h) was 12000 nM; with prostate line LNCap (Homo sapiens, LNCaP, 72 h) it was 3000 nM; on PI3K (PI3Kα, read-out: PI3Kα IC50) it was 612 nM.
Consider `COC(=O)N1CCC(n2ncc3c(N4CCOCC4)nc(-c4ccc(NC(=O)Oc5ccc(Cl)cc5)cc4)nc32)CC1` [Compound 950, methyl 4-[6-(4-{[(4-chlorophenoxy)carbonyl]amino}phenyl)-4-morpholin-4-yl-1H-pyrazolo[3,4-d]pyrimidin-1-yl]piperidine-1-carboxylate], for which the IC50 with breast line MDA468 (Homo sapiens, 72 h) amounted to 17000 nM; with prostate line LNCap (Homo sapiens, 72 h) it was 4900 nM; on PI3K (PI3Kα IC50, PI3Kα), 9010 nM.
In the case of `CNC(=O)Nc1ccc(-c2nc(N3CCOCC3)c3cnn(C4CCN(C(=O)c5ccc(Cl)cc5)CC4)c3n2)cc1` [Example 362, 1-(4-{1-[1-(4-chlorobenzoyl)piperidin-4-yl]-4-morpholin-4-yl-1H-pyrazolo[3,4-d]pyrimidin-6-yl}phenyl)-3-methylurea], the half-inhibitory concentration (IC50) in the test with breast line MDA468 (Homo sapiens, 72 h) turned out to be 400 nM; in the test with prostate line LNCap (Homo sapiens, LNCaP, 72 h), 52 nM; on PI3K (PI3Kα, read-out: PI3Kα IC50), 42 nM.
Taken in the same sequence, the figures for `O=C(Nc1ccncc1)Nc1ccc(-c2nc(N3CCOCC3)c3cnn(C4CCN(Cc5cccnc5)CC4)c3n2)cc1` [Compound 587, 1-(4-{4-morpholin-4-yl-1-[1-(pyridin-3-ylmethyl)piperidin-4-yl]-1H-pyrazolo[3,4-d]pyrimidin-6-yl}phenyl)-3-pyridin-4-ylurea] were 120 nM, 28 nM and 12 nM.
The matching figures for `O=C(NCC1CC1)Nc1ccc(-c2nc(N3CCOCC3)c3cnn(C4CCN(Cc5ccccc5)CC4)c3n2)cc1` [Compound 508, 1-{4-[1-(1-benzylpiperidin-4-yl)-4-morpholin-4-yl-1H-pyrazolo[3,4-d]pyrimidin-6-yl]phenyl}-3-(cyclopropylmethyl)urea]: 3000 nM, 700 nM and 384 nM.
The matching figures for `c1ccc(CCN2CCC(n3ncc4c(N5CCOCC5)nc(-c5ccc6[nH]ccc6c5)nc43)CC2)cc1` [Compound 239, 6-(1H-indol-5-yl)-4-morpholin-4-yl-1-[1-(2-phenylethyl)piperidin-4-yl]-1H-pyrazolo[3,4-d]pyrimidine]: 3100 nM, 780 nM and 3090 nM.
`O=C(Nc1ccc(-c2nc(N3CCOCC3)c3cnn(C4CCN(CC(F)(F)F)CC4)c3n2)cc1)Nc1ccccn1` [Compound 785, 1-(4-{4-morpholin-4-yl-1-[1-(2,2,2-trifluoroethyl)piperidin-4-yl]-1H-pyrazolo[3,4-d]pyrimidin-6-yl}phenyl)-3-pyridin-2-ylurea]: the IC50 came to 12000 nM with breast line MDA468 (Homo sapiens, 72 h); 3800 nM in the test on prostate line LNCap (Homo sapiens, LNCaP, 72 h); 890 nM on PI3K (PI3Kα, read-out: PI3Kα IC50).
Taken in the same sequence, the figures for `COC(=O)N1CCC(n2ncc3c(N4CCOCC4)nc(-c4ccc(NC(=O)OCCO)cc4)nc32)CC1` [Compound 901, methyl 4-[6-(4-{[(2-hydroxyethoxy)carbonyl]amino}phenyl)-4-morpholin-4-yl-1H-pyrazolo[3,4-d]pyrimidin-1-yl]piperidine-1-carboxylate] were 280 nM, 30 nM and 557 nM.
Taken in the same sequence, the figures for `NC(=O)Nc1cccc(-c2nc(N3CCOCC3)c3cnn(C4CCN(Cc5ccccc5)CC4)c3n2)c1` [Compound 483, N-{3-[1-(1-benzylpiperidin-4-yl)-4-morpholin-4-yl-1H-pyrazolo[3,4-d]pyrimidin-6-yl]phenyl}urea] were 12000 nM, 6800 nM and 2170 nM.
As for `Nc1ccc(-c2nc(N3CCOCC3)c3cnn(C4CCN(C(=O)c5cccnc5)CC4)c3n2)cn1` [Example 214, 5-{4-morpholin-4-yl-1-[1-(pyridin-3-ylcarbonyl)piperidin-4-yl]-1H-pyrazolo[3,4-d]pyrimidin-6-yl}pyridin-2-amine], the IC50 in the test with breast line MDA468 (Homo sapiens, 72 h) was 1500 nM; in the test with prostate line LNCap (Homo sapiens, LNCaP, 72 h), 570 nM; at PI3K (PI3Kα, read-out: PI3Kα IC50), 109 nM.
Taken in the same sequence, the figures for `CNC(=O)Nc1ccc(-c2nc(N3CCOCC3)c3cnn(C4CCC(O)CC4)c3n2)cc1` (stereo not drawn) [Example 323, 1-{4-[1-(4-hydroxycyclohexyl)-4-morpholin-4-yl-1H-pyrazolo[3,4-d]pyrimidin-6-yl]phenyl}-3-methylurea] were 200 nM, 54 nM and 39 nM.
With `CNC(=NC#N)Nc1ccc(-c2nc(N3CCOCC3)c3cnn(C4CCN(C(=O)c5cccnc5)CC4)c3n2)cc1` [Example 412, 2-cyano-1-methyl-3-(4-{4-morpholin-4-yl-1-[1-(pyridin-3-ylcarbonyl)piperidin-4-yl]-1H-pyrazolo[3,4-d]pyrimidin-6-yl}phenyl)guanidine], the IC50 with breast line MDA468 (Homo sapiens, 72 h) is 6000 nM; in the test on prostate line LNCap (Homo sapiens, LNCaP, 72 h) it was 3000 nM; on PI3K (PI3Kα, read-out: PI3Kα IC50) it was 382 nM.
On to `O=C(Oc1ccccc1)N1CCC(n2ncc3c(N4CCOCC4)nc(-c4ccc5[nH]ccc5c4)nc32)CC1` [Compound 493, phenyl 4-[6-(1H-indol-5-yl)-4-morpholin-4-yl-1H-pyrazolo[3,4-d]pyrimidin-1-yl]piperidine-1-carboxylate], for which the IC50 with breast line MDA468 worked out at 4300 nM; with prostate line LNCap, 1300 nM; at PI3K (read-out: PI3Kα IC50, PI3Kα), 535 nM.
For `O=CN1CCC(n2ncc3c(N4CCOCC4)nc(-c4ccc5[nH]ccc5c4)nc32)CC1` [Compound 251, 4-[6-(1H-indol-5-yl)-4-morpholin-4-yl-1H-pyrazolo[3,4-d]pyrimidin-1-yl]piperidine-1-carbaldehyde], the IC50 in the test on breast line MDA468 (Homo sapiens, 72 h) was 3000 nM; with prostate line LNCap (Homo sapiens, LNCaP, 72 h), 1000 nM; on PI3K (PI3Kα, read-out: PI3Kα IC50) it was 2800 nM.
Take `S=C(Nc1cccnc1)N1CCC(n2ncc3c(N4CCOCC4)nc(-c4ccc5[nH]ccc5c4)nc32)CC1` [Compound 122, 4-[6-(1H-indol-5-yl)-4-morpholin-4-yl-1H-pyrazolo[3,4-d]pyrimidin-1-yl]-N-pyridin-3-ylpiperidine-1-carbothioamide]: the half-inhibitory concentration (IC50) in the test on breast line MDA468 (Homo sapiens, 72 h) came out at 1300 nM; with prostate line LNCap (Homo sapiens, LNCaP, 72 h), 700 nM; at PI3K (PI3Kα, read-out: PI3Kα IC50) it was 132 nM.
Take `CC(C)OC(=O)N1CCC(n2ncc3c(N4CCOCC4)nc(-c4ccc(NC(=O)NCCO)cc4)nc32)CC1` [Compound 834, isopropyl 4-[6-(4-{[(2-hydroxyethyl)carbamoyl]amino}phenyl)-4-morpholin-4-yl-1H-pyrazolo[3,4-d]pyrimidin-1-yl]piperidine-1-carboxylate]: the half-maximal inhibitory concentration (IC50) in the test on breast line MDA468 (Homo sapiens, 72 h) came out at 180 nM; with prostate line LNCap (Homo sapiens, LNCaP, 72 h), 220 nM; at PI3K (PI3Kα, read-out: PI3Kα IC50), 450 nM.
In the case of `CNC(=O)Nc1ccc(-c2nc(N3CCOCC3)c3cnn(C4CCN(Cc5cncc(Br)c5)CC4)c3n2)cc1` [Example 393, 1-[4-(1-{1-[(5-bromopyridin-3-yl)methyl]piperidin-4-yl}-4-morpholin-4-yl-1H-pyrazolo[3,4-d]pyrimidin-6-yl)phenyl]-3-methylurea], the half-maximal inhibitory concentration (IC50) with breast line MDA468 (Homo sapiens, 72 h) was found to be 600 nM; with prostate line LNCap (Homo sapiens, LNCaP, 72 h), 95 nM; at PI3K (PI3Kα, read-out: PI3Kα IC50), 72 nM.
The matching figures for `CC(=O)NCc1ccc(-c2nc(N3CCOCC3)c3cnn(-c4ccccc4)c3n2)cc1` [Compound 147]: 22000 nM, 5600 nM and 350 nM.
The matching figures for `COC(=O)Nc1ccc(-c2nc(N3CCOCC3)c3cnn(C4CCN(C(=O)c5ccc(F)cc5F)CC4)c3n2)cc1` [Example 449, methyl (4-{1-[1-(2,4-difluorobenzoyl)piperidin-4-yl]-4-morpholin-4-yl-1H-pyrazolo[3,4-d]pyrimidin-6-yl}phenyl)carbamate]: 1200 nM, 500 nM and 800 nM.
As for `c1ccc(-n2ncc3c(N4CCOCC4)nc(-c4cc5ccccc5o4)nc32)cc1` [Compound 112], the IC50 with breast line MDA468 (Homo sapiens, 72 h) was found to be 60000 nM; in the test on prostate line LNCap (Homo sapiens, LNCaP, 72 h), 15000 nM; at PI3K (PI3Kα, read-out: PI3Kα IC50), 1910 nM.
Taken in the same sequence, the figures for `O=C(NCCF)Nc1ccc(-c2nc(N3CCOCC3)c3cnn(C4CCN(C(=O)c5cccnc5)CC4)c3n2)c(F)c1` [Example 463, 1-(2-fluoroethyl)-3-(3-fluoro-4-{4-morpholin-4-yl-1-[1-(pyridin-3-ylcarbonyl)piperidin-4-yl]-1H-pyrazolo[3,4-d]pyrimidin-6-yl}phenyl)urea] were 1200 nM, 1200 nM and 1730 nM.
With `CNC(=O)Nc1ccc(-c2nc(N3CCOCC3)c3cnn(C4CCN(Cc5ccc(C)cc5)CC4)c3n2)cc1` [Example 431, 1-methyl-3-(4-{1-[1-(4-methylbenzyl)piperidin-4-yl]-4-morpholin-4-yl-1H-pyrazolo[3,4-d]pyrimidin-6-yl}phenyl)urea], the IC50 in the test with breast line MDA468 (Homo sapiens, 72 h) is 100 nM; in the test on prostate line LNCap (Homo sapiens, LNCaP, 72 h) it was 27 nM; at PI3K (PI3Kα, read-out: PI3Kα IC50), 25 nM.
